Measured values published in patent publication US5317018A, “Benzodiazepines and compositions for treating anxiety and panic disorders, and idiopathic and psychomotor epilepsy” (priority 1992, dated 1994).
Entries after “also recorded” stand apart in the source; their conditions may differ. Like-named read-outs stand apart in the source and are kept apart here.

How the values were obtained:
[1] = test system: rats; experiment: Vogel punished drinking test with PTZ, proconflict paradigm (anti-proconflict effect, anti-proconflict index); type: in vivo, rat; conditions: for ED50: Rattus norvegicus, iv, 0.25 h, i.v., 15 min before test, PTZ i.p., shock 0.35 mA, fiducial limits on following line; for anti-proconflict index: ratio of ED50 values anticonflict/antiproconflict; for antiproconflict index compared with reference compounds: in words, vs Bretazenil, prior art compound or diazepam
[2] = test system: rats; experiment: Vogel punished drinking test, conflict paradigm (anticonflict effect); type: in vivo; conditions: Rattus norvegicus, iv, 0.25 h; i.v., 15 min before test, shock 0.8 mA; fiducial limits on following line
[3] = Duration of action at doses equipotent to Bretazenil; type: in vivo
[4] = test system: rats; conditions: background, cited from earlier work; for potency in antagonizing conflict and proconflict responses: in words; for anti-proconflict index: Giusti et al. 1991
[5] = test system: rats; conditions: background, in words; cited from earlier work
[6] = test system: rats; experiment: Chemical kindling with pentylenetetrazole (PTZ), kindled seizures; type: in vivo, rat; conditions: per os; for ED50 vs kindled seizures: 30 min before PTZ 30 mg/kg i.p., n 25; for potency relative to diazepam in kindling seizure test: PTZ kindling
Experimental: Kindled seizures were induced in rats by i.p. injection of 30 mg/kg of PTZ every 2nd day for 9 weeks.

[7] = test system: rats; experiment: Development of tolerance to the anticonvulsant effect against bicuculline seizures; type: in vivo, rat; conditions: oral; for development of tolerance to anticonvulsant action: 3 times daily up to 70 days, in words
Experimental: The bicuculline seizure test (see Massotti et al., J. Pharmacol. Exp. Ther. 256: 1154-1156, 1991) consists in infusing a bicuculline solution (0.27 μmol/kg) into the rat tail vein at a constant rate (0.46 ml/min) and records the first sign of myoclonic jerk and the full myoclonic convulsion. The dose of bicuculline required to elicit these responses was taken as an index of the efficacy of diazepam and inventive compounds against seizures induced by a decrease of GABAergic tone (Massotti et al., J. Pharmacol. Exp. Ther. 256: 1154-1160, 1990). […] Possible development of tolerance to the antagonism of bicuculline convulsion was tested on various days after the beginning of the protracted treatment with the inventive compounds.

[8] = background, in words; cited from earlier work

## NC(=O)c1ncn2c1CN=C(c1ccccc1Cl)c1cc(Cl)ccc1-2 [8-chloro-6-(2-chlorophenyl) -4H-imidazo-[1,5-a][1,4]benzodiazepine-3-carboxamide, reference compound]
[1]
  ED50: 0.45 µmol/kg
  anti-proconflict index: 5.0
[2]
  ED50: 2 µmol/kg

## CC(C)(C)OC(=O)c1ncn2c1[C@@H]1CCCN1C(=O)c1c(Br)cccc1-2 [Bretazenil, reference compound]
[3]; Bretazenil, equipotent dose
  duration of action: 0.25 to 0.75 h
[4]
  potency in antagonizing conflict and proconflict responses: surpassed those of the anxiolytic BZD ligands diazepam, zolpidem, alpidem, and midazolam; also recorded: significantly more potent in antagonizing the proconflict effect
  anti-proconflict index: ~10
[1]
  ED50: 0.2 µmol/kg
  anti-proconflict index: 12
[2]
  ED50: 2.4 µmol/kg

## CN1C(=O)CN=C(c2ccccc2)c2cc(Cl)ccc21 [Diazepam, reference compound]
[5]
  prevention of development of kindling seizures: powerful agents to prevent the development of seizures
[4]
  anti-proconflict index: ~1
[6]
  ED50 vs kindled seizures: 5.7 (2.9-11.2)
[7]
  development of tolerance to anticonvulsant action: developed after a few days of treatment
[8]
  development of tolerance in chronic maintenance therapy: rapid development of tolerance
[1]
  ED50: 1.9 µmol/kg
  anti-proconflict index: 1
[2]
  ED50: 2 µmol/kg

## NC(=O)c1ncn2c1CN=C(c1ccccc1Br)c1cc(F)ccc1-2 [Example 9, 6-(2-Bromophenyl)-8-fluoro-4H-imidazo[1,5-a][1,4]benzodiazepine-3-carboxamide]
[6]
  ED50 vs kindled seizures: 0.25 (.071-0.883)
  potency relative to diazepam in kindling seizure test: approximately 20 fold
[7]; 3 times daily
  days of treatment without anticonvulsant tolerance: ≥ 70 days
[7]
  development of tolerance to anticonvulsant action: maintained its anticonvulsant effect unabated without tolerance
[1]
  ED50: 0.061 µmol/kg
  antiproconflict index compared with reference compounds: antiproconflict index larger than that of Bretazenil
  anti-proconflict index: 48
[2]
  ED50: 2.9 µmol/kg

## CCNC(=O)c1ncn2c1CN=C(c1ccccc1Br)c1cc(F)ccc1-2 [Example 10, 6-(2-Bromophenyl)-N-ethyl-8-fluoro-4H-imidazo[1,5-a][1,4]-benzodiazepine-3-carboxamide]
[6]
  potency relative to diazepam in kindling seizure test: 12 fold
[1]
  ED50: 0.079 µmol/kg
  antiproconflict index compared with reference compounds: antiproconflict index larger than that of Bretazenil
  anti-proconflict index: 35
[2]
  ED50: 2.8 µmol/kg

## CCCNC(=O)c1ncn2c1CN=C(c1ccccc1Br)c1cc(F)ccc1-2 [Example 11(a)]
[3]; equipotent doses to Bretazenil
  duration of action: 3 to 6 h
[6]
  potency relative to diazepam in kindling seizure test: 2.2 fold
[1]
  ED50: 0.44 µmol/kg
  antiproconflict index compared with reference compounds: better than diazepam
[2]
  ED50: 2.74 µmol/kg

## CC(C)NC(=O)c1ncn2c1CN=C(c1ccccc1Br)c1cc(F)ccc1-2 [Example 11(b), 6-(2-Bromophenyl)-8-fluoro-N-(1-methylethyl)-4-H-imidazo[1,5-a][1,4]benzodiazepine-3-carboxamide]
[3]; equipotent doses to Bretazenil
  duration of action: 3 to 6 h
[6]
  potency relative to diazepam in kindling seizure test: 2.5 fold
[1]
  ED50: 0.52 µmol/kg
  antiproconflict index compared with reference compounds: better than diazepam
[2]
  ED50: 1.72 µmol/kg

## C=CCNC(=O)c1ncn2c1CN=C(c1ccccc1Br)c1cc(F)ccc1-2 [Example 11(c), 6-(2-Bromophenyl)-8-fluoro-N-(2-propenyl)-4H-imidazo[1,5-a][1,4]benzodiazepine-3-carboxamide]
[1]
  ED50: 0.18 µmol/kg
  antiproconflict index compared with reference compounds: antiproconflict index larger than that of Bretazenil
  anti-proconflict index: 20
[2]
  ED50: 3.6 µmol/kg

## O=C(NCC1CC1)c1ncn2c1CN=C(c1ccccc1Br)c1cc(F)ccc1-2 [Example 11(d), 6-(2-Bromophenyl)-N-[(cyclopropyl)methyl]-8-fluoro-4H-imidazo[1,5-a][1,4]benzodiazepine-3-carboxamide]
[3]; equipotent doses to Bretazenil
  duration of action: 3 to 6 h
[6]
  potency relative to diazepam in kindling seizure test: 2 fold
[1]
  ED50: 0.43 µmol/kg
  antiproconflict index compared with reference compounds: better than diazepam
[2]
  ED50: 3.3 µmol/kg

## CCCN(CCC)C(=O)Cc1c(-c2ccc(Cl)cc2)nc2ccc(Cl)cn12 [alpidem]
[4]
  anti-proconflict index: ~1

## Cc1nnc2n1-c1ccc(Cl)cc1C(c1ccccc1)=NC2 [alprazolam]
[4]
  potency in antagonizing conflict and proconflict responses: surpassed those of the anxiolytic BZD ligands diazepam, zolpidem, alpidem, and midazolam; also recorded: significantly more potent in antagonizing the proconflict effect
  anti-proconflict index: ~10

## O=C1CN=C(c2ccccc2Cl)c2cc([N+](=O)[O-])ccc2N1 [clonazepam]
[5]
  prevention of development of kindling seizures: powerful agents to prevent the development of seizures
[4]
  potency in antagonizing conflict and proconflict responses: surpassed those of the anxiolytic BZD ligands diazepam, zolpidem, alpidem, and midazolam; also recorded: significantly more potent in antagonizing the proconflict effect
  anti-proconflict index: ~10
[8]
  development of tolerance in chronic maintenance therapy: rapid development of tolerance

## Cc1ncc2n1-c1ccc(Cl)cc1C(c1ccccc1F)=NC2 [midazolam]
[4]
  anti-proconflict index: ~1

## Cc1ccc(-c2nc3ccc(C)cn3c2CC(=O)N(C)C)cc1 [zolpidem]
[4]
  anti-proconflict index: ~1
